Experimental data taken from US11360104B2, “Microbial-based biosensors” (TRUSTEES OF BOSTON UNIVERSITY, priority 2017, dated 2022).

Key:
[1] = tested on: P. simplex bacteria (steroid responsive genome island, SRGI); test: RNA-Seq screen of steroid treated P. simplex against solvent controls; format: cell-based, Pimelobacter simplex; conditions: Log2 fold change vs solvent control
Text: (§1) In order to identify steroid binding Transcription Factors, a whole transcriptome RNA sequencing (RNA-Seq) screen was developed (FIG. 7). The growth of Pimelobacter simplex bacteria was profiled with respect to the starting inoculation density, solvent toxicity, and the addition of steroids (FIG. 16). […] P. simplex bacteria were screened against the steroid solvents ethanol (EtOH) and dimethyl sulfoxide (DMSO). […] Steroid growth curves were similarly performed using a starting OD of 0.005 and constant solvent dosing with titrations of steroids. […] P. simplex bacteria were grown in the presence of 700 μM testosterone, 21.88 μM progesterone, 87.50 μM estrone, 21.88 μM 17β-estradiol, 21.88 μM hydrocortisone, or 175.00 μM aldosterone concentrations were selected for comparison.
(§2) Using accession gene tags, genes were annotated for steroid relevant enzymes or transcription factors. […] Allosteric TF binding sequences are often palindromes and typically located near the start of its gene location in an intergenic space. With such a design, the allosteric TF can regulate itself or the open reading frame (ORF) near it in response to its effector molecule. […] Once identified, the TFs were cloned and recombinantly expressed for thorough characterization.
(§3) Cells were grown in 6 mL volumes of media at the OD, solvent, and steroid concentrations found from the growth curves in 14 mL polypropylene round-bottom tubes (Corning #352059) in technical duplicate. The same controls as in the steroid exposure growth curve were used for setting up RNA extraction samples. The cells were incubated at their corresponding temperature with continuous orbital shaking at 150 rpm until the end of lag-phase, mid-log phase, or stationary phase from the start of inoculation. Afterward, samples were removed and a 1:1 ratio of RNAprotect Bacteria Reagent (Qiagen #76506) was added followed by spinning down at 4° C. for 10 minutes at 4000 g. Supernatant was removed and the pellet re-suspended in 300 μL of RNAprotect and transferred into 2.0 mL Safe-Lock Tubes (Eppendorf #3101). The samples were then spun down once again at 4° C. for 10 minutes at 10000 g. Once the supernatant has been removed the samples were placed on ice and ready for RNA extraction. RNA extraction was done by Qiacube (Qiagen #9001292) set to the RNeasy Protect Bacteria Mini Kit protocol of bacterial cell pellet with enzymatic lysis. Tube A was prepared as described except with the addition of 150 mg/mL lysozyme (Sigma-Aldrich #L6876) and 20 mg/mL proteinase K (Roche #03115879001) all diluted in 1xTE buffer. RNA samples were subsequently quantified using Qubit RNA HS Assay Kit (Thermo Fisher Scientific #Q32852) and analyzed using a RNA 6000 Pico Kit (Agilent 5067-1513) in a 2100 Bioanalyzer (Agilent G2939A). RNA samples were either immediately used for RNA-Seq library preparation or stored long-term at −80° C.
(§4) RNA-Seq libraries were then produced from these samples using a slightly modified ScriptSeq v2 RNA-Seq Library Preparation Kit (Illumina 455A/22124) ensuring use of unique index primers through ScriptSeq Index PCR Primers (Sets 1-4) 48 rxns/set (Illumina #SSIP1234).

[2] = tested on: steroid responsive genome island (SRGI); test: Whole transcriptome RNA-Seq of steroid treated P. simplex; format: cell-based, Pimelobacter simplex; conditions: P. simplex exposed to steroid vs solvent control, Log2 fold change
Text: as §1, §2, §3, §4

Pimelobacter simplex = test: Solvent and steroid exposure growth curves; conditions: P. simplex, starting OD 0.005, constant solvent

CC(=O)[C@H]1CC[C@H]2[C@@H]3CCC4=CC(=O)CC[C@]4(C)[C@H]3CC[C@]12C [PRG, Progesterone]
upregulation of genes inside the SRGI (in words) [1]: upregulation of genes inside the SRGI were observed | upregulation of genes inside the SRGI [2]: observed | highest steroid concentration exhibiting normal growth profile (Pimelobacter simplex): 21.88 µM
